The text below walks through data of a melting point compilation (Tetko et al.; mined from patent text by program, amines drawn as free bases though some values may be those of a salt).

As to `CC(C)(C)OC(=O)N[C@@H](C(=O)N1CCC[C@H]1C(=O)NC1CCc2n[nH]cc2C1)C(c1ccccc1)c1ccccc1` (stereo partly drawn), the melting point (usually the temperature, or range, at which the solid turns liquid) lay in the range of 119 to 122 °C.
`COc1ccc(NC(=O)N[C@H]2C[C@@](N)(C(=O)O)[C@@H]3[C@@H](C(=O)O)[C@@H]32)cc1` (relative stereo) registered a melting point of over 250 °C.
In the case of `CCNc1c([N+](=O)[O-])cc(C(C)(C)C)cc1[N+](=O)[O-]` it was 70 to 73 °C.
In the case of `CN1CCN(c2cc(Cl)cc3c2c(=O)n(Cc2ccc(C#N)cc2)c(=O)n3Cc2ccccc2)CC1` it was 99 to 105 °C; in that of `OCCSc1nc(-c2ccccc2)c2cc(Cl)ccc2n1`, 124 °C.
Next, `O=C(O)Cc1ccc(OCCCCl)cc1`: 89 to 91 °C; `O=C(CCCc1cccnc1)N1CCC(CC(c2ccccc2)c2ccccc2)CC1`: 98 to 100 °C.
On to `O=C(O)c1ccc(C(=O)O)c(-c2nc3ccccc3o2)c1`, for which the melting point came to 284 °C.
`COC(=O)C1=C(C)NC(c2ccccc2)=C(C(=O)O)C1c1ccc([N+](=O)[O-])cc1` (stereo not drawn): the melting point was in the range of 190 to 191 °C.
Consider `COc1c(C)c(OC(=O)c2c(C)c(C)c(OCCCOc3ccc(C(N)=O)cc3)c(C)c2OC)c(C)c(C)c1C(N)=O`, for which the melting point lay within 284 to 286 °C.
On to `CCCCN(C(=O)c1cc(C)oc1C)C1CC(C)(C)NC(C)(C)C1`, for which the melting point was in the range of 78 to 79 °C.
In the case of `COCC1COc2cc3ncnc(Nc4cccc(Br)c4)c3cc2O1` (stereo not drawn) it was 268 to 274 °C.
Next, `CCNC(=O)C(=O)[C@H](Cc1ccccc1)NC(=O)[C@H](CC(C)C)NC(=O)OCCOC`: 138 °C; `O=c1[nH]c(=O)n(CCCCCl)c2ccccc12`: 127 to 128 °C; `N#COc1ccc(OC#N)cc1`: 117 to 119 °C.
Next, `CCCOc1ccc(C(=O)OC)cc1C(C)=O`: 44 to 47 °C; `COc1ccc(Oc2ccc(C(=O)N(C3CCCCC3)C3CCCC3)cc2)cc1OC`: 154 °C; `CN1C(=O)CN=C(c2ccccc2F)c2c1cc(Cl)c(N)c2Cl`: 234 °C.
`Cc1cc(C)nc(S(=O)(=O)Nc2c(Cl)cccc2Cl)n1` showed a melting point of 261 to 263 °C.
Next, `CCOC(=O)c1cc(=O)c(O)c(-c2ccc(Cl)cc2)o1`: 157 to 159 °C; `CCC(=O)c1cnc(C(=O)CC)cn1`: 112 °C; `O=S1C(Cl)=C(Cl)CN1C1CCCCC1` (stereo not drawn): 115 to 116 °C.
In turn, `CCOc1cc(Cc2cnc(N)nc2N)cc2c1OC(C)(C)C=C2Cl` gave a melting point of 197 to 199 °C.
`COc1cc(-c2[nH]c3ccc(OCc4ccccc4)cc3c2C)ccc1OCc1ccccc1` gave a melting point of 155 to 158 °C.
In turn, `Cc1[nH]c([N+](=O)[O-])c(C)c1-c1ccnc(Nc2ccc(F)cc2)n1` had a melting point of 166 to 170 °C.
In the case of `NCCN1CCC(Nc2nc3ccccc3n2Cc2ccnc3ccccc23)CC1` it was 196 °C.
Take `CC1Cc2ccc(Br)cc2C(c2ccc(N)cc2)=NN1C(=O)C(F)(F)F` (stereo not drawn): the melting point is 93 to 96 °C.
Next, `NC(=S)c1ncccc1O`: 150 to 151 °C; `CCOc1ccccc1CNc1nc(N)n2nc(-c3ccco3)nc2n1`: 243 to 246 °C; `Cc1ccc2[nH]ncc2c1OCc1ccccc1`: 94 to 95 °C.
On to `COC(=O)c1ccc(OCCCN2CCN(c3ccc(Cl)nn3)CC2)cc1`, for which the melting point was 128 to 130 °C.
Regarding `CCn1cc(C(=O)O)c(=O)c2cc(F)c(N3CCNCC3)c(F)c21`, the melting point was 234 to 236 °C.
Compound `C=CCON(C)C(=O)c1nc(-c2ccc(Cl)c(OC)c2F)cc(N)c1Cl` showed a melting point of 134 to 136 °C.
As to `O=C(Nc1ccc(OC(F)(F)F)cc1)NC1CCN(C(=O)c2ccncc2)CC1`, the melting point was 210 to 212 °C.
Next, `CSc1c(O)ccc2c1[nH]c1ccccc12`: 137 to 138 °C; `CC1([C@H]2CC[C@@H](O)CC2)CC1`: 56 to 57 °C; `CCN(CC)C(=O)CP(=S)(c1ccccc1)c1ccccc1`: 108 to 110 °C.
`c1cc(N2CCCCC2)ccc1OC12CC3CC(CC(C3)C1)C2` yielded a melting point of 72 to 73.5 °C.
In the case of `CCCN(CCC)CCCC1CCN(CCNC(=O)N2c3ccccc3C(=O)Nc3cccnc32)CC1` it was 169 to 170 °C; in that of `Cc1ccc(S(=O)(=O)NCCCn2c(CCO)nc3c(N)nc4ccccc4c32)cc1`, 231 to 232 °C; in that of `Cn1c(=O)c2nc(C(=O)O)cn2c2ccccc21`, 267 to 268 °C.
Next, `NS(=O)(=O)OCCOc1cccc(OCc2ccccc2)c1`: 107 to 109 °C; `CN1CCn2c(-c3ccc(F)c(-c4ccc(F)cc4C#N)c3)cnc2C1=O`: 224 °C.
Compound `C#CCCCCCCOC(=O)COc1ccc(F)c(C(N)=O)c1F` returned a melting point of 130 to 132 °C.
Next, `COC(=O)COc1cc2c(c3c1c(C(=O)C(N)=O)c(C)n3Cc1cccc(F)c1)CCC2`: 142 to 144 °C; `Cc1cc(NC(=O)C(CS)Cc2ccccc2)c(C)c(C(=O)O)c1` (stereo not drawn): 180 to 182 °C; `CCOC(=O)CCCOc1ccc2c(c1)C(=O)CCC2`: 62 to 63 °C.
In the case of `CC(C)n1c2cc(Cl)ccc2c2oc(C(=O)Cl)cc21` it was 141 to 142 °C.
The compound `CC(=O)OC1CC2(C)C(=O)CCC2C2C=CC3=CC(=O)CCC3C12` (stereo not drawn) registered a melting point of 246 to 248 °C.
Next, `CCCCc1c(C(=O)O)c2ccccc2n1C`: 163 to 165 °C.
Next, `C#Cc1cccc(Nc2ncnc3cnc(NC(=O)/C=C/CN(C)C)cc23)c1`: 163 to 166 °C; `Clc1cccc(Nc2ncc3cc4ccccc4n3n2)c1`: 174 to 176 °C; `COc1ccc(NCC(=O)N2CCC(Cc3ccccc3)CC2)cc1`: 117 to 119 °C.
For the compound `Cc1nc(N)c2nc(C)n(CCCCCSc3ccccc3)c2c1C`, the melting point lay within 181 to 183 °C.
`O=C(NCCCCC1CCSS1)NS(=O)(=O)NC(=O)NCCCCC1CCSS1` (stereo not drawn): the melting point was in the range of 153 to 156 °C.
In the case of `CCOC(=O)C=Cc1cc([N+](=O)[O-])ccc1OCCCc1ccccc1` it was 117 to 118 °C; in that of `COc1cc(C2=NNC(=O)CC2)ccc1O`, 209 to 210 °C.
In the case of `CC1(C)Oc2c(ccc3oc(C(=O)O)cc(=O)c23)-c2cc(Cl)ccc21`, the melting point was in the range of 262 to 264 °C.
The compound `CCCC(CCC)N(C[C@H]1CC[C@H](CN(C(=O)Nc2ccc(N(C)C)cc2)C(CCC)CCC)CC1)C(=O)Nc1ccc(N(C)C)cc1` had a melting point of 173 to 176 °C.
As for `CCCCC(=O)Nc1c(C)c(C)c2c(c1C)C(c1ccc(C(C)C)cc1)C(C)(C)O2` (stereo not drawn), the melting point lay within 106 to 107 °C.
`CC1(C)C(=O)Nc2ccc(-c3cccc(C#N)c3)cc21` yielded a melting point of 200 to 202 °C.
Turning to `Cc1c(C(=O)N[C@H](C)[C@](O)(Cn2cncn2)c2ccc(F)cc2F)cnn1-c1ccc(C(F)(F)F)cc1`, the melting point is 180 to 181 °C.
Regarding `COc1ccc(C(=O)Nc2c(Cl)cncc2Cl)c2[nH]c(C(F)(F)F)nc12`, the melting point lay within 300 to 301 °C.
Regarding `N#Cc1cccnc1N1CCN(CC(=O)Nc2ccccc2C(F)(F)F)CC1`, the melting point was in the range of 143 to 145 °C.
In the case of `C#CC1(O)C=CC2C3CCC4=CC(=O)CC(OC(C)=O)C4C3CCC21CC` (stereo not drawn), the melting point lay in the range of 123 to 126 °C.
`N#CC1=C(C2CCCN2)Nc2n[nH]cc2C1c1cccc2nonc12` (stereo not drawn) came in with a melting point of over 240 °C.
Compound `Cc1nn(C)c(F)c1C(=O)F` returned a melting point of 85 to 87 °C.
In the case of `NC(Cc1c[nH]c2ccccc12)C(=O)Nc1c(F)cc(F)cc1F` (stereo not drawn) it was 45 to 55 °C.
In turn, `CC(=O)CCc1c(C)c(OC(C)=O)c(C)c(C)c1OC(C)=O` returned a melting point of 85 to 87.5 °C.
For `COC(=O)COc1ccc(C(=O)C(C)(C)Br)cc1`, the melting point lay in the range of 46 to 50 °C.
With `CC(NC(Nc1cc(C(F)(F)F)cc(C(F)(F)F)c1)=C(C#N)S(C)(=O)=O)C(C)(C)C` (stereo not drawn), the melting point lay in the range of 181 to 182 °C.
Regarding `COc1ccc2c(c1)CCC(CN1CCC3(CC1)C(=O)NCN3c1ccccc1)=C2`, the melting point is 182 to 193 °C.
For `CC(=O)N1C(=O)N(c2cc(Cl)cc(Cl)c2)C(=O)[C@]12CN(Cc1ccccc1)C[C@H]2c1ccc(C#N)cc1` (relative stereo), the melting point stood at 224 °C.
In the case of `CCc1oc2ccccc2c1C(=O)c1cc(-c2ccccc2)c(O)c(-c2ccccc2)c1` it was 142 to 143 °C.
Regarding `COC(=O)c1c(C)[nH]c(C)c1C1=CC(=O)c2cccc(O)c2C1=O`, the melting point was 98 to 99 °C.
In the case of `C=CCn1cc(C(=O)OCC)c(=O)c2cc(C(=O)OC)ccc21` it was 156 to 163 °C.
Compound `CC(C)[C@H](NC(=O)N(C)Cc1nc2ccccc2[nH]1)C(=O)N[C@@H](Cc1ccccc1)[C@@H](O)C[C@H](Cc1ccccc1)NC(=O)OCc1cccnc1` displayed a melting point of 110 to 114 °C.
`O=C1c2ccccc2C(=O)N1CCC(=O)N1c2ccccc2N(Cc2ccccc2)C(=O)[C@H]2CCC[C@H]21` (relative stereo) showed a melting point of 242 to 244 °C.
Next, `N[C@H](CCC(=O)N1[C@H](C(=O)O)C[C@@H]2CCCC[C@@H]21)C(=O)O`: 191 to 192 °C.
In the case of `CN1C(=O)[C@](C)(C(=O)O)Oc2ccccc21` it was 139 to 142 °C; in that of `CCOC(=O)c1cn(C2CC2)c2cc(Cl)c(F)c(Cl)c2c1=O`, 227 to 229 °C.
`CC(C)(C)OC(=O)N[C@H](Cc1ccc(Cl)c(Cl)c1)C(=O)N1CCC[C@H]1C(=O)NC1CCc2nc(N)ncc2C1` (stereo partly drawn) came in with a melting point of 114 to 117 °C.
In turn, `CCN1C(=O)Cc2ccc(C(O)CCl)c(O)c21` (stereo not drawn) returned a melting point of 141 to 147 °C.
With `Cc1cc(-c2ccccc2O)nn1-c1ccccc1`, the melting point lay in the range of 225 to 229 °C.
Compound `CON=C(C)c1cc2c(Oc3ccc(Cl)cc3)cncc2s1` returned a melting point of 126 to 128 °C.
Next, `COc1cccc2c1OCC(C#N)=C2`: 105 to 106 °C; `COc1ccc(-c2nc3ccc(O)cc3[nH]2)cc1C12CC3CC(CC(C3)C1)C2`: 230 °C.
Next, `BrCc1cc2ccc3ccccc3c2s1`: 75 to 78 °C.
